Data as given in ChEMBL document CHEMBL1144475, “Design, synthesis, and evaluation of inhibitors for severe acute respiratory syndrome 3C-like protease based on phthalhydrazide ketones or heteroaromatic esters” (J Med Chem, 2007).
Non-standard residues stand in square brackets, D forms with d. Residues, ends and D or L forms follow the SMILES beside them. *: point of attachment. Ala(2-oxopyrrolidin-3S-yl) = N[C@@H](C[C@@H]1CCNC1=O)C(=O)O; X1 = Clc1cncc(O*)c1; Bn = c1ccc(C*)cc1

Target: Replicase polyprotein 1a (Severe acute respiratory syndrome-related coronavirus) (UniProt P0C6U8)
Test: Inhibition of SARS coronavirus 3C-like protease at 1 uM

| Compound | inhibition |
| --- | --- |
| O=C(Oc1cncc(Cl)c1)c1ccc(-c2ccc(Cl)cc2)o1 | 98% |
| O=C(Oc1cncc(Cl)c1)c1cc2ccccc2s1 | 96% |
| O=C(Oc1cncc(Cl)c1)c1cc2ccccc2[nH]1 | 99% |
| O=C(Oc1cncc(Br)c1)c1ccco1 | 98% |
| O=C(Oc1cncc(Cl)c1)c1cscn1 | 98% |
| COc1cccc(C(=O)Oc2cncc(Cl)c2)c1 | 97% |

Target: Replicase polyprotein 1a (Severe acute respiratory syndrome-related coronavirus) (UniProt P0C6U8)
Test: Inhibition of SARS coronavirus His-3C-like protease at 100 uM

| Compound | inhibition |
| --- | --- |
| CC(=O)N[C@H](C(=O)N[C@H](C(=O)N[C@@H](CC(C)C)C(=O)N[C@@H](Cc1ccccc1)C(=O)Cn1[nH]c(=O)c2ccccc2c1=O)[C@@H](C)OCc1ccccc1)C(C)C | 72% |
| O=C(Cc1cccnc1)c1cccs1 | < 10% |
| Cc1ccc(OC(=O)c2cccs2)c([N+](=O)[O-])n1 | 15% |
| O=Cc1cccs1 | < 10% |
| O=C(Oc1cncc(Cl)c1)c1ccco1 | 99% |
| Cc1ncccc1OC(=O)c1cccs1 | < 10% |
| O=Cc1ccc(-c2ccc(Cl)cc2)o1 | 70% |
| Cc1ccc(OC(=O)c2cccs2)nc1 | < 10% |
| O=C(Oc1cccc(Cl)n1)c1cccs1 | < 10% |
| Clc1cncc(OCc2ccco2)c1 | 11% |
| O=C(Nc1ccncc1)c1cccs1 | < 10% |
| O=C(Oc1cncc(Cl)c1)c1ccoc1 | 89% |
| O=C(Oc1ccc(Cl)nc1)c1cccs1 | 13% |
| O=C(Nc1ccccn1)c1cccs1 | < 10% |
| O=C(Oc1ccco1)c1cccnc1 | 80% |
| O=C(Oc1cncc(Cl)c1)c1ccc[nH]1 | 65% |
| O=C(Oc1cccc(Cl)c1)c1ccco1 | 40% |
| O=C(OCc1cccnc1)c1cccs1 | 19% |
| CC(=O)N[C@H](C(=O)N[C@H](C(=O)N[C@@H](CC(C)C)C(=O)N[C@@H](C[C@@H]1CCNC1=O)C(=O)Oc1cncc(Cl)c1)[C@@H](C)OCc1ccccc1)C(C)C (Ac-VT(Bn)L[Ala(2-oxopyrrolidin-3S-yl)]-X1) | < 10% |
| O=C(Oc1cncc(Br)c1)c1ccco1 | 99% |

| Compound | inhibition |
| --- | --- |
| O=C(Oc1cccnc1)c1cccs1 | 91% |
| O=C(Oc1cncc(Cl)c1)c1cc2ccccc2o1 | 94% |
| O=C(Oc1cncc(Cl)c1)c1ccccc1 | 92% |
| O=C(Cc1cncc(Br)c1)c1ccco1 | < 10% |
| O=C(Nc1ccc(F)cn1)c1cccs1 | < 10% |
| O=C(Nc1cccnc1Cl)c1cccs1 | < 10% |
| O=C(Oc1ccncc1)c1cccs1 | < 10% |
| O=C(Nc1cccnc1)c1cccs1 | 13% |
| O=C(OCc1cncc(Br)c1)c1ccco1 | 90% |
| O=C(Oc1cccnc1Cl)c1cccs1 | 20% |
| O=S(=O)(Nc1cccnc1)c1cccs1 | < 10% |
| O=C(Oc1ccccn1)c1cccs1 | 13% |
| Cc1ccc(OC(=O)c2cccs2)cn1 | < 10% |
| CC(=O)N[C@H](C(=O)N[C@H](C(=O)N[C@@H](CC(C)C)C(=O)N[C@@H](C[C@@H]1CCNC1=O)C(=O)c1cccs1)[C@@H](C)OCc1ccccc1)C(C)C | < 10% |
| O=Cc1cc2ccccc2[nH]1 | 39% |
| O=C(Nc1ccc(Cl)cn1)c1cccs1 | < 10% |
| O=Cc1ccco1 | 23% |
| Cc1cccc(OC(=O)c2cccs2)n1 | 38% |
| O=Cc1cscn1 | 36% |
| CC(=O)N[C@H](C(=O)N[C@H](C(=O)N[C@@H](CC(C)C)C(=O)N[C@@H](C[C@@H]1CCNC1=O)C(=O)c1cccs1)[C@@H](C)O)C(C)C | 23% |

Target: Replicase polyprotein 1a (Severe acute respiratory syndrome-related coronavirus, UniProt P0C6U8)
Test: Inhibition of SARS coronavirus 3C-like protease

| Compound | IC50 |
| --- | --- |
| O=C(Oc1cncc(Cl)c1)c1ccc(-c2ccc(Cl)cc2)o1 | 63 nM |
| O=C(Oc1cncc(Cl)c1)c1ccco1 | 60 nM |
| O=C(Oc1cncc(Cl)c1)c1cc2ccccc2s1 | 95 nM |
| O=C(Oc1cncc(Cl)c1)c1cc2ccccc2[nH]1 | 65 nM |
| O=C(Oc1cncc(Br)c1)c1ccco1 | 50 nM |
| O=C(Oc1cncc(Cl)c1)c1cc2ccccc2o1 | 170 nM |
| O=C(Oc1cncc(Cl)c1)c1cscn1 | 270 nM |
